Source: publication PMC10439952, “JT002, a small molecule inhibitor of the NLRP3 inflammasome for the treatment of autoinflammatory disorders” (Scientific Reports, 2023)
pIC50: −log10 of the molar value.

What was measured:
Type in all cases: cell-based
[1] = molecular target: NLRP3 inflammasome (Homo sapiens, UniProt Q96P20); test: Inhibition of IL-1β production in human PBMCs stimulated by LPS + nigericin; parameters: host or cells: human PBMCs; fresh heparinised human whole blood from healthy volunteers; conditions: Human PBMC, read-out: Geo Av IC50, IL-1β
Description: (§1) Inflammasome activation and whole blood assays were essentially carried out as described earlier. Details can be found in the supplementary information section accompanying this publication. A protocol for blood draws from healthy volunteers and use of the blood in preclinical assays was approved by Western Institutional Review Board, Inc (Puyallup, WA, USA). Informed consent was obtained from each donor prior to the first blood draw.
(§2) Cell viability was determined by addition of an equal volume of CellTiter-Glo® 2.0 reagent (Promega) to the remaining cells/supernatant in each well. Intracellular Caspase-1 activity was measured using the Caspase-Glo® assay (Promega) according to the manufacturer’s instructions. The biochemical capsase-1 assay was conducted at Reaction Biology Corporation (Malvern, USA). Human IL-1β, IL-1α, and TNFα and mouse IL-1β were measured in cell culture supernatants using homogeneous time resolved fluorescence assay kits (HTRF, Cisbio, Codolet, France). Human IL-18 was measured in cell culture supernatants using an ELISA kit (R&D Systems, Minneapolis, MN, USA). Plasma IL-1β concentrations were determined by Quantikine® ELISA (R&D Systems, Minneapolis, MN).
(§3) 4H). MS: m/z 433.1 (M+H+). […]

[2] = molecular target: T1, NLRP3 inflammasome (Mus musculus, UniProt Q8R4B8); test: Inhibition of non-canonical NLRP3 pathway IL-1β production in mouse BMDMs (Pam3CSK4 + transfected LPS); parameters: host or cells: mouse PBMCs; mouse bone-marrow derived macrophages; mouse whole blood (C57BL/6 in the ex vivo study); conditions: Mouse BMDM, read-out: Geo Av IC50, IL-1β
Description: as §1, §2, §3

[3] = molecular target: T1, NLRP3 inflammasome; test: Inhibition of IL-1β production in LPS + ATP stimulated mouse whole blood
Description: as §1
as §2, with “MN). […]” for “MN).”
flagellin, prepared in Opt iMEM and combined with Lipofectamine 2000. […]

T1 sequence (Q8R4B8 whole entry): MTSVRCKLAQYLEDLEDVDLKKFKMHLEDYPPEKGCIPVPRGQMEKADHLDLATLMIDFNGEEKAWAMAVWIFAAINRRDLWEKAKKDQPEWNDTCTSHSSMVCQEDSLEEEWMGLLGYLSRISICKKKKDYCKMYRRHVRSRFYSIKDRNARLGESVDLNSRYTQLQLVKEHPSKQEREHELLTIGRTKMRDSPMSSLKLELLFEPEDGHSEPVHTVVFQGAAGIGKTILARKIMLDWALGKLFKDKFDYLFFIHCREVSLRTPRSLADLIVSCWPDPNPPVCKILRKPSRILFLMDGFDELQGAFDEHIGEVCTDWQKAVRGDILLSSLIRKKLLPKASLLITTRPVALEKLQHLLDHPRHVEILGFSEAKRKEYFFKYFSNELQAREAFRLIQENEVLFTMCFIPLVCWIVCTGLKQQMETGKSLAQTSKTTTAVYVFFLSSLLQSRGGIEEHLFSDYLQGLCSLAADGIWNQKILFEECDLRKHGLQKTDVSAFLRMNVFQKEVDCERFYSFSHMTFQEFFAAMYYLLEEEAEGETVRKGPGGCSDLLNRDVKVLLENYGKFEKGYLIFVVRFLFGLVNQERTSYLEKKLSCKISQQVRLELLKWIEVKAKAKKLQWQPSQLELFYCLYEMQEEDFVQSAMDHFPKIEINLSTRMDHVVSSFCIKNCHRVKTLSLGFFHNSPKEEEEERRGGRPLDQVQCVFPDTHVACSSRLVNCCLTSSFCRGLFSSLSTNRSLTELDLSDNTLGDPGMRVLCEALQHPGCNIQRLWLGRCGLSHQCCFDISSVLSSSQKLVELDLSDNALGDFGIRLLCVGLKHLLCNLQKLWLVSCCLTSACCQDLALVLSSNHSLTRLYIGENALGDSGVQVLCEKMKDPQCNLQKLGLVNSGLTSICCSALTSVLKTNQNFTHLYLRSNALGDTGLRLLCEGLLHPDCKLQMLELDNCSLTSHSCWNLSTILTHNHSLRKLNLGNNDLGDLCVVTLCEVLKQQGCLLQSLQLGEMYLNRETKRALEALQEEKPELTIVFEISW
Sequence of NLRP3 inflammasome (Homo sapiens, UniProt Q96P20) (Q96P20 whole entry): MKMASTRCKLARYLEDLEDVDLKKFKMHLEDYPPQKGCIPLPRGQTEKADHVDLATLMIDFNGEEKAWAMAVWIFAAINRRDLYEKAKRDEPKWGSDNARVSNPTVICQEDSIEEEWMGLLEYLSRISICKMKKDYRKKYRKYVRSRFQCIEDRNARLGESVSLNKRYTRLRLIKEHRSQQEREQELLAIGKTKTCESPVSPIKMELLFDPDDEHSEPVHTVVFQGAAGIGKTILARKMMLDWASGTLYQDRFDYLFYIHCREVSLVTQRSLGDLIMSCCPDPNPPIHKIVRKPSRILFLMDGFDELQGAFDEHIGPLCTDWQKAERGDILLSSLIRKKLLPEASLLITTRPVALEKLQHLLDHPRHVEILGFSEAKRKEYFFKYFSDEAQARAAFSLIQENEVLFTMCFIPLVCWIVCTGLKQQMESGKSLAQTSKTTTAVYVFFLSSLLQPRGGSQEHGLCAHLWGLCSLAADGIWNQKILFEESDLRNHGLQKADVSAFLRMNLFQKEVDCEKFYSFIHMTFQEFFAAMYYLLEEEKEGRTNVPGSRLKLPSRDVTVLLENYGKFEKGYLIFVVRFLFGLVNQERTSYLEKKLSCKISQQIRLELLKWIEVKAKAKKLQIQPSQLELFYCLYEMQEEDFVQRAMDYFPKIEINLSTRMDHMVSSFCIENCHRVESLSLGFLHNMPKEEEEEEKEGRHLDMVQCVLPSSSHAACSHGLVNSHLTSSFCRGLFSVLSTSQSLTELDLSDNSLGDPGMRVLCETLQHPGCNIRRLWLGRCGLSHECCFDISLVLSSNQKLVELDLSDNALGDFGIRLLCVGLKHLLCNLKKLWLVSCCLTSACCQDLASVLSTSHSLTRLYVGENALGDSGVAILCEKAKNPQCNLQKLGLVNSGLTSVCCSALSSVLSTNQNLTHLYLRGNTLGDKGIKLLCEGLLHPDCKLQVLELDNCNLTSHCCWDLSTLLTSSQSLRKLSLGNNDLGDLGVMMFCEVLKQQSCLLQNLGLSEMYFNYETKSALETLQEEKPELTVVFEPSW

Compound: CO[C@@H]1COc2c(S(=O)(=O)NC(=O)Nc3c4c(cc5c3CCC5)CCC4)cnn2C1 [JT002]
- pIC50 [1]: 8.22
- pIC50 [2]: 7.52
- IC90 ([3]; IL-1β, read-out: in vitro mouse whole blood IC90): 0.716 µM
- pIC50 ([3]; read-out: Geo Av IC50, IL-1β): 7.03
